This is an account of results in patent publication US20240262842A1, “SMALL MOLECULE INHIBITORS OF KRAS G12C MUTANT” (Merck Sharp & Dohme LLC, priority 2021, published 2024).

Each structure is given as a SMILES string. Read-outs that look alike come from different tables or passages of the source.

One experiment deals with MIA PaCa-2 cells. Description: Growth inhibition activity on KRAS-G12C mutant cell line (CellTiter-Glo 3D). The following applies: MIA PaCa-2, 3-day culture with compound. Format: cell-based, human. The essentials:
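IC50 (nM) derived from inhibition of luminescence (CellTiter-Glo 3D) relative to compound-free wells. Cells were seeded in U-bottom plates, grown 1 day, then exposed to compound for 3 days at 37 °C with 0.2% final DMSO.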

Experiment [1] addresses T1, interaction between GMPPNP-bound recombinant K-Ras4B G12C mutant protein and cRAF RAS-binding domain (cRAF-RBD) (Homo sapiens, UniProt P01116, G12C).
T1 construct: His-tag (N)
As to the kind of experiment: Inhibitory activity on interaction between KRAS G12C and cRAF (Alpha technology). Put shortly:
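Alpha signal measured 1.5 h after adding cRAF-RBD (aa 50-132) and detection reagents to GMPPNP-bound KRAS G12C (aa 1-169) pretreated 1 h at 25° C with compound (pH 7.5 buffer). 0% inhibition = DMSO, 100% = GDP-loaded KRAS; IC50 by curve fit.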

The mark [2] stands for this setting: Homo sapiens, MIA PaCa-2, 72 h, Table 3-1.
Setting [3] is: GMPPNP-bound KRAS G12C incubated with compound 25° C. 1 hour, Table 2-1, read-out: IC50.
Setting [4] is: Homo sapiens, MIA PaCa-2, 72 h, Table 3.
The mark [5] stands for this setting: IC50, GMPPNP-bound KRAS G12C incubated with compound 25° C. 1 hour, Table 2.
Setting [6] is: IC50, GMPPNP-bound KRAS G12C incubated with compound 25° C. 1 hour, Table 2-1.

T1 sequence (P01116 with tags, fused parts or gaps isoform P01116-2 G12C): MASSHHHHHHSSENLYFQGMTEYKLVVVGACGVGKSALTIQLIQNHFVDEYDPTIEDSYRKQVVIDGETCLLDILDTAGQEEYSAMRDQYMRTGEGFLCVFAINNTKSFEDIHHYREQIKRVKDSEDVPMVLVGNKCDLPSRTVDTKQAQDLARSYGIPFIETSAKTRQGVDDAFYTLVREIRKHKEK

As for `Cc1nnc2c3c(c(C(F)(F)F)cn12)-c1cccn2c(C(=O)c4cc(F)c(NC(=O)/C=C/CN[C@H]5CCOC5)c(F)c4)cc(c12)CCN3C` [Example 217, (S,E)-N-(4-(10,13-dimethyl-7-(trifluoromethyl)-14,15-dihydro-13H-[1,2,4]triazolo[4″,3″:1′,2′]pyrido[3′,4′:2,3]azocino[4,5,6-hi]indolizine-2-carbonyl)-2,6-difluorophenyl)-4-((tetrahydrofuran-3-yl)amino)but-2-enamide], the concentration for half-maximal inhibition (IC50) was 6.22 nM in the experiment on MIA PaCa-2 cells (setting [2]) and 19.7 nM in experiment [1] (setting [3]).

Turning to `CO[C@H]1CC[C@H](NC/C=C/C(=O)Nc2c(F)cc(C(=O)c3cn4c5c(cccc35)-c3c(C(F)(F)F)cc5c(nc(C)n5C)c3CCC4)cc2F)CC1` [Example 28, (E)-N-(4-(8,9-dimethyl-6-(trifluoromethyl)-8,11,12,13-tetrahydroimidazo[4″,5″:3′,4′]benzo[1′,2:4,5]azocino[3,2,1-hi]indole-2-carbonyl)-2,6-difluorophenyl)-4-(((1r,4r)-4-methoxycyclohexyl)amino)but-2-enamide], the IC50 with MIA PaCa-2 cells (setting [4]) worked out at 17 nM; in experiment [1] (setting [5]), 53 nM.

In the case of `Cn1cnc2c3c(c(C(F)(F)F)cc21)-c1cccn2c(C(=O)c4cc(F)c(NC(=O)C=CCNC5CCOC5)c(F)c4)cc(c12)CCO3` [Example 120, (S,E)-N-(2,6-difluoro-4-(9-methyl-7-(trifluoromethyl)-13,14-dihydro-9H-imidazo[4″,5″:5′,6′]benzo[1′,2′:2,3]oxocino[4,5,6-bi]indolizine-2-carbonyl)phenyl)-4-((tetrahydrofuran-3-yl)amino)but-2-enamide], the values for the IC50 (with MIA PaCa-2 cells (setting [2]); in experiment [1] (setting [3])) were 6.52 nM and 5.59 nM, respectively.

With `Cc1cc2c(nc(C)n2C)c2c1-c1cccc3c(C(=O)c4cc(F)c(NC(=O)/C=C/CN5[C@@H]6CC[C@H]5[C@H](O)C6)c(F)c4)cn(c13)CCN2C` (racemic) [Example 144], the IC50 in the experiment with MIA PaCa-2 cells (setting [2]) is 30.2 nM; in experiment [1] (setting [6]), 22.4 nM.

In the case of `Cn1cnc2c3c(c(C(F)(F)F)cc21)-c1cccn2c(C(=O)c4cc(F)c(NC(=O)/C=C/CN5C[C@H]6COC[C@H]6C5)c(F)c4)cc(c12)CCO3` [Example 213, (E)-N-(2,6-difluoro-4-(9-methyl-7-(trifluorometh-yl)-13,14-dihydro-9H-imidazo[4″,5″:5′,6′]benzo-[1′,2′:2,3]oxocino[4,5,6-hi]indolizine-2-carbonyl)-phenyl)-4-((3aR,6aS)-tetrahydro-1H-furo[3,4-c]pyrrol-5(3H)-yl)but-2-enamide], the IC50 with MIA PaCa-2 cells (setting [2]) was 25.3 nM; in experiment [1] (setting [3]), 62.1 nM.

For `Cn1cnc2c3c(c(C(F)(F)F)cc21)-c1cccn2c(C(=O)c4cc(F)c(NC(=O)/C=C/CNC5(C)COC5)c(F)c4)cc(c12)CCO3` (single isomer, unassigned) [Example 75, (E)-N-(2,6-difluoro-4-(9-methyl-7-(trifluoro-methyl)-13,14-dihydro-9H-imidazo[4″,5″:5′,6′]-benzo[1′,2′:2,3]oxocino-[4,5,6-hi]indolizine-2-carbonyl)phenyl)-4-((3-methyloxetan-3-yl)-amino)but-2-enamide], the IC50 with MIA PaCa-2 cells (setting [2]) is 9.48 nM; in experiment [1] (setting [3]), 15.9 nM.

With `CO[C@H]1CC[C@H](NC/C=C/C(=O)Nc2c(F)cc(C(=O)c3cn4c5c(cccc35)-c3c(C)cc5c(nc(C)n5C)c3OC[C@H](C)C4)cc2F)CC1` (single isomer, unassigned) [Example 24], the half-inhibitory concentration (IC50) in the experiment with MIA PaCa-2 cells (Table 3) came to 1100 nM; in experiment [1] (setting [5]), 1800 nM.

In the case of `CO[C@H]1CC[C@H](NC/C=C/C(=O)Nc2c(F)cc(C(=O)c3cn4c5c(cccc35)-c3c(C(F)(F)F)cc5c(nc(C)n5C)c3N(C)CC4)cc2F)CC1` [Example 45, (E)-N-(2,6-difluoro-4-(8,9,11-trimethyl-6-(trifluoromethyl)-8,11,12,13-tetrahydroimidazo[4′ 5,6][1,4]diazocino[7,8,1-hi]indole-2-carbonyl)phenyl)-4-(((1,4r)-4-methoxycyclohexyl)amino)but-2-enamide], the figures for the IC50 (in the experiment on MIA PaCa-2 cells (setting [4]); in experiment [1] (setting [5])) were 5 nM and 21 nM, respectively.

Consider `Cn1cnc2c3c(c(C(F)(F)F)cc21)-c1cccn2c(C(=O)c4cc(F)c(NC(=O)/C=C/CN5C[C@H]6C[C@@H]5CO6)c(F)c4)cc(c12)CCO3` [Example 190, (E)-4-((1R,4R)-2-oxa-5-azabicyclo[2.2.1]heptan-5-yl)-N-(2,6-difluoro-4-(9-methyl-7-(trifluoro-methyl)-13,14-dihydro-9H-imidazo[4″,5″:5′,6′]-benzo[1′,2′:2,3]oxocino-[4,5,6-hi]indolizine-2-carbonyl)phenyl)but-2-enamide], for which the IC50 in the experiment with MIA PaCa-2 cells (setting [2]) was determined as 9.08 nM; in experiment [1] (setting [3]), 10.3 nM.

Regarding `CO[C@H]1CC[C@H](NC/C=C/C(=O)Nc2c(F)cc(C(=O)c3cc4c5c(cccn35)-c3c(C)cc5c(ncn5C)c3N(C)CC4)cc2F)CC1` [Example 110, (E)-N-(2,6-difluoro-4-(7,9,12-trimethyl-9,12,13,14-tetrahydro-imidazo[4″,5″:5′,6′]benzo-[1′,2′:2,3]azocino[4,5,6-hi]indolizine-2-carbon-yl)phenyl)-4-(((1r,4r)-4-methoxycyclohexyl)-amino)but-2-enamide], the values for the IC50 (in the experiment on MIA PaCa-2 cells (setting [2]); in experiment [1] (setting [3])) were 55.8 nM and 35.7 nM, respectively.

In the case of `CO[C@H]1CC[C@H](NC/C=C/C(=O)Nc2c(F)cc(C(=O)c3cn4c5c(cccc35)-c3c(C)cc5c(nc(C)n5C)c3OCCC4)cc2F)CC1` (single isomer, unassigned) [Example 15-2, (E)-N-(2,6-difluoro-4-(6,8,9-trimethyl-13,14-dihydro-8H,12H-imidazo[4″,5″:3′,4′]benzo[1′,2″:8,9][1,5]oxazonino[7,6,5-hi]indole-2-carbonyl)phenyl)-4-(((1r,4r)-4-methoxycyclohexyl)amino)but-2-enamide], the IC50 stood at 27 nM in the experiment on MIA PaCa-2 cells (Table 3) and 35 nM in experiment [1] (setting [5]).

For the compound `CO[C@H]1CC[C@H](NC/C=C/C(=O)Nc2c(F)cc(C(=O)c3cn4c5c(cccc35)-c3c(C)cc5c(nc(C)n5C)c3N(C)CC4)cc2F)CC1` (single isomer, unassigned) [Example 62], the half-inhibitory concentration (IC50) in the experiment with MIA PaCa-2 cells (setting [2]) was 6.91 nM; in experiment [1] (setting [6]), 17.4 nM.

For the compound `COc1cc2c(nc(C)n2C)c2c1-c1cccn3c(C(=O)c4cc(F)c(NC(=O)/C=C/CNC5(C)CC5)c(F)c4)cc(c13)CCS2` [Example 225, (E)-N-(2,6-difluoro-4-(7-methoxy-9,10-dimethyl-13,14-dihydro-9H-imidazo[4″,5″:5′,6′]benzo-[1′,2′:2,3]thiocino[4,5,6-hi]indolizine-2-carbonyl)-phenyl)-4-((1-methyl-cyclopropyl)amino)but-2-enamide], the IC50 in the experiment with MIA PaCa-2 cells (setting [2]) was 7.18 nM; in experiment [1] (setting [3]), 10.1 nM.

Turning to `CO[C@H]1CC[C@H](NC/C=C/C(=O)Nc2ccc(C(=O)c3cc4c5c(cccn35)-c3c(C(F)(F)F)cc5c(nc(C)n5C)c3OCC4)nc2)CC1` [Example 59, (E)-N-(6-(9,10-dimethyl-7-(trifluoromethyl)-13,14-dihydro-9H-imidazo-[4″,5″:5′,6′]benzo[1′,2′: 2,3]oxocino[4,5,6-hi]-indolizine-2-carbonyl)-pyridin-3-yl)-4-(((1r,4r)-4-methoxycyclohexyl)-amino)but-2-enamide], the IC50 in the experiment on MIA PaCa-2 cells (setting [2]) worked out at 19.8 nM; in experiment [1] (setting [3]), 27.6 nM.

`CO[C@H]1CC[C@H](NC/C=C/C(=O)Nc2c(F)cc(C(=O)c3cn4c5c(cccc35)-c3c(C)cc5c(nc(C)n5C)c3OC4)cc2F)CC1` [Example 16, (E)-N-(2,6-difluoro-4-(2,3,5-trimethyl-3H,12H-imidazo[4″,5″.3′,4′]benzo[1′,2:6,7][1,3]oxazepino[5,4,3-hi]indole-9-carbonyl)phenyl)-4-(((1r,4r)-4-methoxycyclohexyl)amino)but-2-enamide]: the IC50 in the experiment on MIA PaCa-2 cells (setting [4]) came to 56 nM; in experiment [1] (setting [5]), 100 nM.

Turning to `Cn1cnc2c3c(c(C(F)(F)F)cc21)-c1cccn2c(C(=O)c4cc(F)c(NC(=O)/C=C/CN5CC[C@H]5CO)c(F)c4)cc(c12)CCO3` [Example 165, (S,E)-N-(2,6-difluoro-4-(9-methyl-7-(trifluoro-methyl)-13,14-dihydro-9H-imidazo[4″,5″:5′,6′]-benzo[1′,2′:2,3]oxocino-[4,5,6-hi]indolizine-2-carbonyl)phenyl)-4-(2-(hydroxymethyl)azetidin-1-yl)but-2-enamide], the IC50 in the experiment on MIA PaCa-2 cells (setting [2]) is 5.44 nM; in experiment [1] (setting [3]), 3.75 nM.

`Cc1cc2c(nc(C)n2C)c2c1-c1cccc3c(C(=O)c4cc(F)c(NC(=O)/C=C/CN[C@H]5[C@@H]6COC[C@@H]65)c(F)c4)cn(c13)CCN2C` [Example 143, (E)-4-(((1R,5S,6r)-3-oxa-bicyclo[3.1.0]hexan-6-yl)amino)-N-(2,6-difluoro-4-(6,8,9,11-tetramethyl-8,11,12,13-tetrahydro-imidazo[4″,5″:5′,6′]benzo-[1′,2′:5,6][1,4]diazocino-[7,8,1-hi]indole-2-carbon-yl)phenyl)but-2-enamide]: the values for the IC50 (with MIA PaCa-2 cells (setting [2]); in experiment [1] (setting [6])) were 47.7 nM and 17.8 nM, respectively.

As to `COCCn1cnc2c3c(c(OC)cc21)-c1cccn2c(C(=O)c4cc(F)c(NC(=O)/C=C/CN[C@H]5CCOC5)c(F)c4)cc(c12)CCN3C` (single isomer, unassigned) [Example 203], the IC50 in the experiment with MIA PaCa-2 cells (setting [2]) came to 11 nM; in experiment [1] (setting [3]) it was 20.4 nM.
